Source: PubChem BioAssay AID256 (DTP/NCI, 2004)
Where “and” joins values, the source holds several entries; their conditions need not be identical. Identical values can stand only once. Inconclusive results and toxic doses are left out.

Test system: CD2F1 mice, L1210 leukemia ip, survival T/C
Test: NCI In Vivo Anticancer Drug Screen. Data for tumor model L1210 Leukemia (intraperitoneal) in CD2F1 (CDF1) mice
Conditions: higher = longer survival
How it was run: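 Each value reflects a quotient of treated over vehicle control outcomes in mice with a transplanted tumor.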

CC[C@@]1(O)C(=O)OCc2c1cc1n(c2=O)Cc2cc3cc(O)ccc3nc2-1
T/C (endpoint: mean survival time, dose: 2.0 mg/kg/injection, schedule: Q04DX003 (ip), vehicle: other): 155 % of control | T/C (endpoint: mean survival time, dose: 4.0 mg/kg/injection, schedule: Q04DX003 (ip), vehicle: other): 174 % of control | T/C (endpoint: mean survival time, dose: 16.0 mg/kg/injection, schedule: Q04DX003 (ip), vehicle: other): 107 % of control | T/C (endpoint: median survival time, dose: 1.25 mg/kg/injection, schedule: Q04DX002 (ip), vehicle: saline): 184 % of control | T/C (endpoint: median survival time, dose: 1.5 mg/kg/injection, schedule: Q04DX002 (ip), vehicle: saline): 166 % of control | T/C (endpoint: median survival time, dose: 2.5 mg/kg/injection, schedule: Q04DX002 (ip), vehicle: saline): 162 % of control and 253 % of control | T/C (endpoint: median survival time, dose: 3.0 mg/kg/injection, schedule: Q04DX002 (ip), vehicle: suspension in saline): 150 % of control | T/C (endpoint: median survival time, dose: 5.0 mg/kg/injection, schedule: Q04DX002 (ip), vehicle: saline): 232 % of control and 301 % of control | T/C (endpoint: median survival time, dose: 6.0 mg/kg/injection, schedule: Q04DX002 (ip), vehicle: suspension in saline): 153 % of control | T/C (endpoint: median survival time, dose: 10.0 mg/kg/injection, schedule: Q04DX002 (ip), vehicle: saline): 192 % of control and 209 % of control | T/C (endpoint: median survival time, dose: 12.0 mg/kg/injection, schedule: Q04DX002 (ip), vehicle: suspension in saline): 228 % of control | T/C (endpoint: median survival time, dose: 20.0 mg/kg/injection, schedule: Q04DX002 (ip), vehicle: saline): 184 % of control and 348 % of control | T/C (endpoint: median survival time, dose: 40.0 mg/kg/injection, schedule: Q04DX002 (ip), vehicle: saline): 102 % of control | T/C (endpoint: median survival time, dose: 48.0 mg/kg/injection, schedule: Q04DX002 (ip), vehicle: suspension in saline): 87 % of control

CC[C@@]1(OC(=O)C(N)CCCCN)C(=O)OCc2c1cc1n(c2=O)Cc2cc3ccccc3nc2-1 (some centres not stated)
T/C (endpoint: median survival time, dose: 7.29 mg/kg/injection, schedule: Q04DX002 (ip), vehicle: water): 114 % of control | T/C (endpoint: median survival time, dose: 10.94 mg/kg/injection, schedule: Q04HX004 (iv), vehicle: water): 165 % of control and 178 % of control | T/C (endpoint: median survival time, dose: 14.58 mg/kg/injection, schedule: Q04DX002 (ip), vehicle: water): 122 % of control | T/C (endpoint: median survival time, dose: 21.87 mg/kg/injection, schedule: Q04HX004 (iv), vehicle: water): 197 % of control and 201 % of control | T/C (endpoint: median survival time, dose: 29.17 mg/kg/injection, schedule: Q04DX002 (ip), vehicle: water): 188 % of control and 204 % of control | T/C (endpoint: median survival time, dose: 58.33 mg/kg/injection, schedule: Q04DX002 (ip), vehicle: water): 231 % of control and 253 % of control | T/C (endpoint: median survival time, dose: 116.7 mg/kg/injection, schedule: Q04DX002 (ip), vehicle: water): 214 % of control

COc1ccc2c3c(ccc2c1)C1=NCCC1(C)CC3 (configuration not stated)
T/C (endpoint: mean survival time, dose: 100.0 mg/kg/injection, schedule: Q01DX001 (sc), vehicle: Klucel (hydroxypropylcellulose) (HPC)): 101 % of control | T/C (endpoint: mean survival time, dose: 100.0 mg/kg/injection, schedule: Q04DX003 (sc), vehicle: steriod suspending solution): 105 % of control | T/C (endpoint: mean survival time, dose: 200.0 mg/kg/injection, schedule: Q01DX001 (sc), vehicle: Klucel (hydroxypropylcellulose) (HPC)): 101 % of control | T/C (endpoint: mean survival time, dose: 200.0 mg/kg/injection, schedule: Q04DX003 (sc), vehicle: steriod suspending solution): 102 % of control | T/C (endpoint: mean survival time, dose: 400.0 mg/kg/injection, schedule: Q01DX001 (sc), vehicle: Klucel (hydroxypropylcellulose) (HPC)): 93 % of control | T/C (endpoint: mean survival time, dose: 400.0 mg/kg/injection, schedule: Q04DX003 (sc), vehicle: steriod suspending solution): 108 % of control

CCC(C)OC(=O)Nc1cccc(OC(=O)N(C)C)c1 (configuration not stated)
T/C (endpoint: mean survival time, dose: 100.0 mg/kg/injection, schedule: Q04DX003 (ip), vehicle: saline with Tween-80): 97 % of control | T/C (endpoint: mean survival time, dose: 200.0 mg/kg/injection, schedule: Q04DX003 (ip), vehicle: saline with Tween-80): 97 % of control | T/C (endpoint: mean survival time, dose: 400.0 mg/kg/injection, schedule: Q04DX003 (ip), vehicle: saline with Tween-80): 100 % of control

NC(=O)NO
T/C (endpoint: mean survival time, dose: 4.0 mg/kg/injection, schedule: Q03HX024 (ip), vehicle: saline): 95 % of control | T/C (endpoint: mean survival time, dose: 8.0 mg/kg/injection, schedule: Q03HX024 (ip), vehicle: saline): 97 % of control | T/C (endpoint: mean survival time, dose: 62.0 mg/kg/injection, schedule: Q03HX024 (ip), vehicle: saline): 90 % of control | T/C (endpoint: mean survival time, dose: 100.0 mg/kg/injection, schedule: Q03DX003 (ip), vehicle: saline): 110 % of control | T/C (endpoint: mean survival time, dose: 200.0 mg/kg/injection, schedule: Q04DX003 (ip), vehicle: saline): 100 % of control | T/C (endpoint: median survival time, dose: 25.0 mg/kg/injection, schedule: Q03HX024 (ip), vehicle: saline): 120 % of control | T/C (endpoint: median survival time, dose: 100.0 mg/kg/injection, schedule: Q06HX016 (ip), vehicle: saline): 99 % of control | T/C (endpoint: median survival time, dose: 200.0 mg/kg/injection, schedule: Q06HX016 (ip), vehicle: saline): 99 % of control

Cc1ccc(C(=O)C2OC2c2ccccc2)cc1 (configuration not stated)
T/C (endpoint: mean survival time, dose: 100.0 mg/kg/injection, schedule: Q01DX001 (ip), vehicle: saline with Tween-80): 94 % of control | T/C (endpoint: mean survival time, dose: 200.0 mg/kg/injection, schedule: Q01DX001 (ip), vehicle: saline with Tween-80): 100 % of control | T/C (endpoint: mean survival time, dose: 400.0 mg/kg/injection, schedule: Q01DX001 (ip), vehicle: saline with Tween-80): 94 % of control

c1cc(CSc2ncnc3nc[nH]c23)ccn1
T/C (endpoint: mean survival time, dose: 178.0 mg/kg/injection, schedule: Q01DX001 (ip), vehicle: saline): 118 % of control | T/C (endpoint: mean survival time, dose: 267.0 mg/kg/injection, schedule: Q01DX001 (ip), vehicle: saline): 115 % of control | T/C (endpoint: mean survival time, dose: 400.0 mg/kg/injection, schedule: Q01DX001 (ip), vehicle: saline): 119 % of control

Cc1ccc(NC(=O)OCCOc2ccc(Cl)cc2)cc1C
T/C (endpoint: mean survival time, dose: 50.0 mg/kg/injection, schedule: Q01DX009 (ip), vehicle: saline with Tween-80): 96 % of control | T/C (endpoint: mean survival time, dose: 100.0 mg/kg/injection, schedule: Q01DX009 (ip), vehicle: saline with Tween-80): 92 % of control | T/C (endpoint: mean survival time, dose: 200.0 mg/kg/injection, schedule: Q01DX009 (ip), vehicle: saline with Tween-80): 87 % of control
